pIC50: −log10 of the molar value. Like-named read-outs stand apart in the source and are kept apart here.

This passage reports IC50 results from patent US8592456B2 (4SC Discovery GmbH, priority 2011, dated 2013).

The subject of this experiment is PBMC (T cell proliferation). Nature of the experiment: T cell proliferation assay, PHA-stimulated human PBMC (BrdU ELISA). The experiment is classed as cell-based. An outline of the steps:
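Healthy-donor human PBMC, Ficoll-isolated, seeded 1×10^5 cells/well in RPMI1640 with 10% dialyzed FCS, stimulated with 2 μg/ml PHA alongside test compound. Proliferation read after 48 hours by BrdU ELISA.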
A general note: Incorporation of labelled thymidine or its analogues reports DNA synthesis.

[1] abbreviates: human PBMC, 2 μg/ml PHA, 48 hours, BrdU, read-out: D: IC50 (Tcell proliferation).
The mark [2] stands for this setting: PHA-stimulated human PBMC, 48 hours, BrdU, column D, activity classes 1-4, read-out: IC50 (Tcell proliferation).
Setting [3] is: Homo sapiens, 48 h, read-out: IC50 (Tcell proliferation).

For `CCOC(=O)c1c(-c2ccccc2F)noc1-c1cnn(-c2cccc(Cl)c2)c1C(F)(F)F` [Example B-47, ethyl 5-(1-(3-chlorophenyl)-5-(trifluoromethyl)-1H-pyrazol-4-yl)-3-(2-fluorophenyl)isoxazole-4-carboxylate], under setting [1], the pIC50 is 7.00 to 8.00.

Turning to `Fc1cccc(Cl)c1-c1noc(-c2cnn(-c3cccc(Cl)c3)c2C(F)(F)F)c1-c1nncs1` [IB-8, 3-(2-chloro-6-fluorophenyl)-5-(1-(3-chlorophenyl)-5-(trifluoromethyl)-1H-pyrazol-4-yl)-4-(1,3,4-thiadiazol-2-yl)isoxazole], the pIC50 under setting [2] was above 8.00. For `CCOC(=O)c1c(-c2c(F)cccc2Cl)noc1-c1cnn(-c2ccc(C#N)cc2)c1C(F)(F)F` [Example B-40, ethyl 3-(2-chloro-6-fluorophenyl)-5-(1-(4-cyanophenyl)-5-(trifluoromethyl)-1H-pyrazol-4-yl)-isoxazole-4-carboxylate], under setting [1], the pIC50 is 5.00 to 6.00.

`Cc1nnc(-c2c(-c3c(F)cccc3Cl)noc2-c2cnn(-c3ccccn3)c2C(F)(F)F)o1` [IB-26, 2-(3-(2-chloro-6-fluorophenyl)-5-(1-(pyridin-2-yl)-5-(trifluoromethyl)-1H-pyrazol-4-yl)isoxazol-4-yl)-5-methyl-1,3,4-oxadiazole]: under setting [2], the pIC50 is 6.00 to 7.00. In the case of `CCOC(=O)c1c(-c2onc(-c3c(F)cccc3Cl)c2C(=O)OC)cnn1-c1ccccc1` [Example 34, methyl 3-(2-chloro-6-fluorophenyl)-5-(5-(ethoxycarbonyl)-1-phenyl-1Hpyrazol-4-yl)isoxazole-4-carboxylate], under setting [1], the pIC50 is 5.00 to 6.00. With `CCOC(=O)c1c(-c2c(F)cccc2Cl)noc1-c1cnn(-c2ccc([N+](=O)[O-])cc2)c1C(F)(F)F` [Example B-94, ethyl 3-(2-chloro-6-fluorophenyl)-5-(1-(4-nitrophenyl)-5-(trifluoromethyl)-1H-pyrazol-4-yl)isoxazole-4-carboxylate], the pIC50 under setting [1] is 5.00 to 6.00. In the case of `Oc1csc(-c2c(-c3c(F)cccc3Cl)noc2-c2cnn(-c3cccc(F)c3)c2C(F)(F)F)n1` [Example I-9, 2-(3-(2-chloro-6-fluorophenyl)-5-(1-(3-fluorophenyl)-5-(trifluoromethyl)-1H-pyrazol-4-yl)isoxazol-4-yl)thiazol-4-ol], the pIC50 under setting [3] was 6.00 to 7.00. For `CCOC(=O)c1c(-c2c(Cl)cncc2Cl)noc1-c1cnn(-c2ccccn2)c1C(F)(F)F` [Example B-5, ethyl 3-(3,5-dichloropyridin-4-yl)-5-(1-(pyridin-2-yl)-5-(trifluoromethyl)-1H-pyrazol-4-yl)isoxazole-4-carboxylate], the pIC50 under setting [1] is 5.00 to 6.00. Still for that read-out and setting: then `COC(=O)c1c(-c2c(F)cccc2Cl)noc1-c1cnn(-c2cccc(C#N)c2)c1C(F)(F)F` [Example 12, methyl 3-(2-chloro-6-fluorophenyl)-5-(1-(3-cyanophenyl)-5-(trifluoromethyl)-1H-pyrazol-4-yl)isoxazole-4-carboxylate], with 7.00 to 8.00; and `COC(=O)c1c(-c2ccc(Cl)cc2)noc1-c1cnn(-c2cccc(F)c2)c1C(F)(F)F` [Example 73, methyl 3-(4-chlorophenyl)-5-(1-(3-fluorophenyl)-5-(trifluoromethyl)-1H-pyrazol-4-yl)isoxazole-4-carboxylate], with 5.00 to 6.00; and `CC(=O)Nc1c(-c2c(F)cccc2Cl)noc1-c1cnn(-c2cccc(Cl)c2)c1C(F)(F)F` [Example B-39, N-(3-(2-chloro-6-fluorophenyl)-5-(1-(3-chlorophenyl)-5-(trifluoromethyl)-1H-pyrazol-4-yl)-isoxazol-4-yl)acetamide], with 5.00 to 6.00. The same measure, in the same setting: then `COC(=O)c1c(-c2c(F)cccc2Cl)noc1-c1cnn(-c2ncc(C(F)(F)F)cc2Cl)c1C(F)(F)F` [Example 87], with 5.00 to 6.00. Consider `Fc1ccccc1-n1ncc(-c2onc(-c3c(F)cccc3Cl)c2-c2nccs2)c1C(F)(F)F` [IB-30, 3-(2-chloro-6-fluorophenyl)-5-(1-(2-fluorophenyl)-5-(trifluoromethyl)-1H-pyrazol-4-yl)-4-(thiazol-2-yl)isoxazole], for which the pIC50 under setting [2] was 7.00 to 8.00. `CCOC(=O)c1c(-c2c(F)cccc2Cl)noc1-c1cnn(-c2cccc(NC(C)=O)c2)c1C(F)(F)F` [Example B-70, ethyl 5-(1-(3-acetamidophenyl)-5-(trifluoromethyl)-1H-pyrazol-4-yl)-3-(2-chloro-6-fluorophenyl)isoxazole-4-carboxylate]: the pIC50 under setting [1] was 7.00 to 8.00.

Consider `CN1CCN(C(=O)c2c(-c3c(F)cccc3Cl)noc2-c2cnn(-c3cccc(Cl)c3)c2C(F)(F)F)CC1` [Example B-34, (3-(2-chloro-6-fluorophenyl)-5-(1-(3-chlorophenyl)-5-(trifluoromethyl)-1H-pyrazol-4-yl)-isoxazol-4-yl)(4-methylpiperazin-1-yl)methanone], for which the pIC50 under setting [1] is 6.00 to 7.00. Same read-out and setting: next, `CCOC(=O)c1c(-c2c(Cl)cncc2Cl)noc1-c1cnn(-c2cccnc2)c1C(F)(F)F` [Example B-12, ethyl 3-(3,5-dichloropyridin-4-yl)-5-(1-(pyridin-3-yl)-5-(trifluoromethyl)-1H-pyrazol-4-yl)isoxazole-4-carboxylate]: 6.00 to 7.00; `CCOC(=O)c1c(-c2ccccc2Cl)noc1-c1cnn(-c2cccc(Cl)c2)c1C(F)(F)F` [Example B-41, ethyl 3-(2-chlorophenyl)-5-(1-(3-chlorophenyl)-5-(trifluoromethyl)-1H-pyrazol-4-yl)-isoxazole-4-carboxylate]: 7.00 to 8.00.

Turning to `COC(=O)c1c(-c2c(F)cccc2Cl)noc1-c1cnn(-c2ccncc2)c1C(F)(F)F` [Example B-69, methyl 3-(2-chloro-6-fluorophenyl)-5-(1-(pyridin-4-yl)-5-(trifluoromethyl)-1H-pyrazol-4-yl)isoxazole-4-carboxylate], the pIC50 under setting [1] is 7.00 to 8.00. With `Fc1cccc(Cl)c1-c1noc(-c2cnn(-c3ccccc3Cl)c2C(F)(F)F)c1-c1nccs1` [IB-29, 3-(2-chloro-6-fluorophenyl)-5-(1-(2-chlorophenyl)-5-(trifluoromethyl)-1H-pyrazol-4-yl)-4-(thiazol-2-yl)isoxazole], under setting [3], the pIC50 was 5.00 to 6.00.

For the compound `NC(=O)c1c(-c2c(F)cccc2Cl)noc1-c1cnn(-c2cccc(Cl)c2)c1C(F)(F)F` [Example 121, 3-(2-chloro-6-fluorophenyl)-5-(1-(3-chlorophenyl)-5-(trifluoromethyl)-1H-pyrazol-4-yl)isoxazole-4-carboxamide], under setting [1], the pIC50 was 5.00 to 6.00.

As for `Fc1cccc(-n2ncc(-c3onc(-c4c(F)cccc4Cl)c3-c3ccoc3)c2C(F)(F)F)c1` [Example I-13, 3-(2-chloro-6-fluorophenyl)-5-(1-(3-fluorophenyl)-5-(trifluoromethyl)-1H-pyrazol-4-yl)-4-(furan-3-yl)isoxazole], the pIC50 under setting [2] was 5.00 to 6.00.

In the case of `COC(=O)c1c(-c2c(F)cccc2Cl)noc1-c1cnn(-c2cccc(NC(C)=O)c2)c1C(F)(F)F` [Example B-89, 5-(1-(3-acetamidophenyl)-5-(trifluoromethyl)-1H-pyrazol-4-yl)-3-(2-chloro-6-fluorophenyl)isoxazole-4-carboxylate], the pIC50 under setting [1] was 6.00 to 7.00. For the compound `NNC(=O)c1c(-c2c(F)cccc2Cl)noc1-c1cnn(-c2cccc(F)c2)c1C(F)(F)F` [Example 133, 3-(2-chloro-6-fluorophenyl)-5-(1-(3-fluorophenyl)-5-(trifluoromethyl)-1H-pyrazol-4-yl)isoxazole-4-carbohydrazide], the pIC50 under setting [1] was 5.00 to 6.00.
